In ChEMBL document CHEMBL1201862, “PubChem BioAssay data set” (2004) one finds AC50, IC50 and EC50 data, which are given here for 3 compounds.

Calls of active or inactive are those of the source.

The target of series [1] is Cytochrome P450 2C9 (Homo sapiens, UniProt P11712).
Series [2] deals with Cytochrome P450 2D6 (Homo sapiens, UniProt P10635).
In series [3] the test system is HEK293. As to the kind of experiment: NOD2 signaling inhibitors in MDP-stimulated cells, cell-based, uHTS, luminescence (AID 2001). It counts as functional. The following applies: Homo sapiens.
Series [4] concerns the target Tumor necrosis factor (Homo sapiens, UniProt P01375). Put plainly: analog potency on TNFa NF-kB signaling – cell-based, revised, SAR follow-up (AID 2337). The format is functional.
Series [5] has as its system HEK293. As to the kind of experiment: cells. The format is functional, cell-based. The following applies: Homo sapiens.
The target in series [6] is Nucleotide-binding oligomerization domain-containing protein 1 (Homo sapiens, UniProt Q9Y239). As to the kind of experiment: blockers of NOD1 pathway activity – revised, SAR follow-up (AID 2333). It counts as functional.
Series [7] has as its system HEK293. Put plainly: inhibition of NOD1-driven NF-kB reporter – cell-based, luminescence, uHTS, primary screen (AID 1578). It counts as functional. The following applies: Homo sapiens.
Series [8] deals with HEK293. Put plainly: cells. The following applies: Homo sapiens.
Series [9] has as its system HEK293. Put plainly: cells. The following applies: Homo sapiens. The format is functional, cell-based. This is another data set of the same source.
In series [10] the target is Nucleotide-binding oligomerization domain-containing protein 2 (Homo sapiens, UniProt Q9HC29). Put plainly: inhibition of NOD2-driven NF-kB reporter – cell-based, luminescence, uHTS, HEK293 (AID 1566). The format is functional.
Series [11] deals with HEK293. Put plainly: cells. It counts as functional, cell-based. The following applies: Homo sapiens. This is another data set of the same source.
The nature of series [12]: HEK-293T viability loss after treatment – luminescence, T-cell screen hits, cytotoxicity control for TCR NF-kB inhibitor project, dose response (AID 489026).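 Further: cells exposed to compound about 14 hours before the viability readout.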 The format is functional, cell-based.
In series [13] the target is Induced myeloid leukemia cell differentiation protein Mcl-1 (Homo sapiens, UniProt Q07820). The format is functional.
For series [14], the target named is CAAX prenyl protease 2 (Homo sapiens, UniProt Q9Y256). Put plainly: inhibition of Ras-converting CAAX protease Rce1 – biochemical, yeast membranes, quenched-peptide fluorescence, cherry-pick, dose response (AID 588849).
Series [15] addresses T1, Sentrin-specific protease 8 (Homo sapiens, UniProt Q96LD8).
T1 sequence (Q96LD8 whole entry): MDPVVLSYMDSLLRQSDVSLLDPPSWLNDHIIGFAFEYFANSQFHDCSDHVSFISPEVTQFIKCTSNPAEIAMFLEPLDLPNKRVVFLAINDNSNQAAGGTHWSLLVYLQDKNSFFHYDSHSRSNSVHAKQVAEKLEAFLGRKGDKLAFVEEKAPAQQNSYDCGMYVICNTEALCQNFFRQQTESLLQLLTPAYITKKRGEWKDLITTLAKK
The format is functional.

Series [16] deals with T2, Sentrin-specific protease 6 (Homo sapiens, UniProt Q9GZR1).
T2 sequence (Q9GZR1 whole entry): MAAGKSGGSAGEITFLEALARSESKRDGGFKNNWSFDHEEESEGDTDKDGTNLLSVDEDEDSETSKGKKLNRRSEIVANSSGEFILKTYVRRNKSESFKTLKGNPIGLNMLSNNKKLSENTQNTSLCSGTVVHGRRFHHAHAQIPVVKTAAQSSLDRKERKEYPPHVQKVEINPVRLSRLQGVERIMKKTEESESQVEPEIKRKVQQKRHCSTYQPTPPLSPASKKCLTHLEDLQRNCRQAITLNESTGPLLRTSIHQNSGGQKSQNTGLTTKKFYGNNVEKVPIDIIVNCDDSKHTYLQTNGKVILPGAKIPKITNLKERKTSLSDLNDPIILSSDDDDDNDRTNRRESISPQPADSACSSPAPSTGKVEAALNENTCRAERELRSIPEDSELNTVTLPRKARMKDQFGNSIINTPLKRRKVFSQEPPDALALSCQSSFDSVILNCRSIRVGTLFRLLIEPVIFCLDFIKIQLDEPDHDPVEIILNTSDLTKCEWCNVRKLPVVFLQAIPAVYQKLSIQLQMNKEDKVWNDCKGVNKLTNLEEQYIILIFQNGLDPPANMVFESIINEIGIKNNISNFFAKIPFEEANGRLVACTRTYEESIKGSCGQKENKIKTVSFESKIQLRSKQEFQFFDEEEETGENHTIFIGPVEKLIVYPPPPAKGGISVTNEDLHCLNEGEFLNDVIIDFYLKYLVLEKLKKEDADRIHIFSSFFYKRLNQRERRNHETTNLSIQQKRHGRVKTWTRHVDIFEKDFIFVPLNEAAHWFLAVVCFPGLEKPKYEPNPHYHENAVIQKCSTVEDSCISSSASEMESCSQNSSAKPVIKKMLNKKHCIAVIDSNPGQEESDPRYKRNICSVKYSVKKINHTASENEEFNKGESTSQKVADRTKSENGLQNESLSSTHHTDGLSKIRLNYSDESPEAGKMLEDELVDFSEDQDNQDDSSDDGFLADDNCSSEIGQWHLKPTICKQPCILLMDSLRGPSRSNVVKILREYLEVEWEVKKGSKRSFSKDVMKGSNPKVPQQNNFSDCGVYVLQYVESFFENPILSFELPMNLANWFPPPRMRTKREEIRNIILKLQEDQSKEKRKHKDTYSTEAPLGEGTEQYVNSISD
The format is functional.

Series [17] deals with T3, Sentrin-specific protease 7 (Homo sapiens, UniProt Q9BQF6).
T3 sequence (Q9BQF6 whole entry): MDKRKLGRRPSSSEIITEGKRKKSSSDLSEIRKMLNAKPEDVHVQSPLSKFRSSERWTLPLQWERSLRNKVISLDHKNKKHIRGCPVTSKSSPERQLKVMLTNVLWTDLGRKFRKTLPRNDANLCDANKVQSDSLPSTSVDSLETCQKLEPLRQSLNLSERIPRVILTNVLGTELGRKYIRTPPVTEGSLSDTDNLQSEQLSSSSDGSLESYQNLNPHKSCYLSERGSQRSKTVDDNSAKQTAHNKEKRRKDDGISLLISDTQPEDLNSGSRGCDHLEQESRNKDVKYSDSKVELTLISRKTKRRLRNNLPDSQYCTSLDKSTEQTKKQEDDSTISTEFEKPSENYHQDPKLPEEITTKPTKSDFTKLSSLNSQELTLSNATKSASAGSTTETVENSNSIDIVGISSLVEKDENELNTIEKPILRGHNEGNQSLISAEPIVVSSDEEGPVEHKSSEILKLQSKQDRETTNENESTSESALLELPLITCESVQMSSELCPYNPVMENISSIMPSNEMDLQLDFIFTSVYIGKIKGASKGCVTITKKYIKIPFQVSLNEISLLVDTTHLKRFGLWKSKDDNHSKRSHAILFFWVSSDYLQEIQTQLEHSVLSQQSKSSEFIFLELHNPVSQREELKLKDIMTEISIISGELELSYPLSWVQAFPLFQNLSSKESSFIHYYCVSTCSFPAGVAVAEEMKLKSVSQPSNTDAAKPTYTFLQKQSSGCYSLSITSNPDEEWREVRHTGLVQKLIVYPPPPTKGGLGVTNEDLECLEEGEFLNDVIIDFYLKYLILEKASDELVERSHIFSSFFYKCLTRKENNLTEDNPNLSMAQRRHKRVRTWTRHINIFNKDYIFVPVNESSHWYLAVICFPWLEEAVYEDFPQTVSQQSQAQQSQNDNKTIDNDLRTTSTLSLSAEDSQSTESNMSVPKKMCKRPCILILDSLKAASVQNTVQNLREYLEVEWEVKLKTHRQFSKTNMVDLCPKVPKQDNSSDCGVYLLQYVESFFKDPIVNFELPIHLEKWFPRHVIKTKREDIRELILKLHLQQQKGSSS
It counts as functional.

The target of series [18] is Genome polyprotein (dengue virus type 2, UniProt P29990). Put plainly: flavivirus cap methylation enzyme inhibition – biochemical, confirmation dose response, primary screen (AID 588689). It counts as functional.
Series [19] addresses FAD-linked sulfhydryl oxidase ALR (Homo sapiens, UniProt P55789). Put plainly: ALR-catalysed DTT oxidation blockers – biochemical, H2O2 detection, luminescence, cherry-pick, dose response (AID 493248).
Series [20] concerns the target T4, Caspase-3 (Homo sapiens, UniProt P42574).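 Further: Dose-response selectivity test against caspase-3 for candidate inhibitors of sentrin-specific proteases (SENPs).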
T4 sequence (P42574 whole entry): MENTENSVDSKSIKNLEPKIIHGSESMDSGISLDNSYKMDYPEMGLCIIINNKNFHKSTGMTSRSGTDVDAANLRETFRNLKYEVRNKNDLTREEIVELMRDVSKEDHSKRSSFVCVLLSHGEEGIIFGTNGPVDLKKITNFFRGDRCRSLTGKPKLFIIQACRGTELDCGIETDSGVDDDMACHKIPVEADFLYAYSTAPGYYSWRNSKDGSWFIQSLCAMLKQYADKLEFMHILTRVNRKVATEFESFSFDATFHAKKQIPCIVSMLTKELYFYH
The format is functional.

The target of series [21] is T5, Calpain-2 catalytic subunit (Sus scrofa, UniProt P43367).
T5 sequence (P43367 whole entry): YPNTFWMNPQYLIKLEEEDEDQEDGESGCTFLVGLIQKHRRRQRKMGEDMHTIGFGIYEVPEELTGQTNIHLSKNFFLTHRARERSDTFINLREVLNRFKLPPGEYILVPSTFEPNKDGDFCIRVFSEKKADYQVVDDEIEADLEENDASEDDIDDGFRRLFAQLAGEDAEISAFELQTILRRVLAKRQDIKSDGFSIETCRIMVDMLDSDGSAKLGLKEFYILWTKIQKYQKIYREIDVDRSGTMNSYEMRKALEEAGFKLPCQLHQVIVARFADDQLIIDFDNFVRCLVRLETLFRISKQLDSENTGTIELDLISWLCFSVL
As to the kind of experiment: m-calpain protease blockers, concentration series – biochemical, fluorogenic peptide substrate, dose response (AID 1420). The format is functional.

The target of series [22] is Trypsin (Sus scrofa, UniProt P00761). Put plainly: trypsin protease activity blockade – biochemical, quenched peptide fluorescence, cherry-pick, selectivity assay for Rce1 protease inhibitor project, dose response (AID 488789).
In series [23] the target is CAAX prenyl protease 2 (Saccharomyces cerevisiae S288c, UniProt Q03530). It counts as biochemical.
Series [24] addresses CAAX prenyl protease 1 (Saccharomyces cerevisiae S288c, UniProt P47154). As to the kind of experiment: yeast CAAX protease Ste24 inhibition – biochemical, S. cerevisiae, plate reader, cherry-pick, dose response (AID 488815).

Sequence of Tumor necrosis factor (P01375 whole entry): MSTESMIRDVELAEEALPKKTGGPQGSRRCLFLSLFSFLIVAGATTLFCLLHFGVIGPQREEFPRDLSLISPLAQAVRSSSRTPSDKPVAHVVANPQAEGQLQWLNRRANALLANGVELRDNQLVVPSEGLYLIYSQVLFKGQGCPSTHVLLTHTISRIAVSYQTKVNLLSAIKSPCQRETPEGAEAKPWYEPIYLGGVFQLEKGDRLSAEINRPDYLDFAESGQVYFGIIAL
Sequence of CAAX prenyl protease 1 (P47154 whole entry): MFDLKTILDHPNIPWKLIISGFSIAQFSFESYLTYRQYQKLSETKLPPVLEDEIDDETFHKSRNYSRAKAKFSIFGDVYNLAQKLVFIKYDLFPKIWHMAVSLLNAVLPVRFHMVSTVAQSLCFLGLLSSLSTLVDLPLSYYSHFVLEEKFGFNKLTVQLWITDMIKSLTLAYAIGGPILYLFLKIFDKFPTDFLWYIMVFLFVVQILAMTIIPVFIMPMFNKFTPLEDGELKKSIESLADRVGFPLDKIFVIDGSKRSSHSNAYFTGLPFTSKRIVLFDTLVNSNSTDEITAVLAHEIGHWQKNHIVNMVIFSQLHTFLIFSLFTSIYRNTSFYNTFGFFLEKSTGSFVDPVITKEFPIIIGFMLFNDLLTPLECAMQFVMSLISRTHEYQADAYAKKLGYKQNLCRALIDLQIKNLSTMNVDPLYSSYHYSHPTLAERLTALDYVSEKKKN
Sequence of CAAX prenyl protease 2 (Saccharomyces cerevisiae S288c, UniProt Q03530) (Q03530 whole entry): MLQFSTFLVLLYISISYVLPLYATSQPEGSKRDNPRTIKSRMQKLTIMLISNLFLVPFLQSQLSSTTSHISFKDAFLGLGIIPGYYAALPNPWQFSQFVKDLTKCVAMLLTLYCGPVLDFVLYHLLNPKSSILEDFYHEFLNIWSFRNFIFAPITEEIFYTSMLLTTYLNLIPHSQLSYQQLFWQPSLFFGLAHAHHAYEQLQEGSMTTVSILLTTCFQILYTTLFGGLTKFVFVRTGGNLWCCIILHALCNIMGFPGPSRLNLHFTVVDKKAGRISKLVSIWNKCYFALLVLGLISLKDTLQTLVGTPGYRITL
Sequence of Nucleotide-binding oligomerization domain-containing protein 1 (Q9Y239 whole entry, the tested form may be a part): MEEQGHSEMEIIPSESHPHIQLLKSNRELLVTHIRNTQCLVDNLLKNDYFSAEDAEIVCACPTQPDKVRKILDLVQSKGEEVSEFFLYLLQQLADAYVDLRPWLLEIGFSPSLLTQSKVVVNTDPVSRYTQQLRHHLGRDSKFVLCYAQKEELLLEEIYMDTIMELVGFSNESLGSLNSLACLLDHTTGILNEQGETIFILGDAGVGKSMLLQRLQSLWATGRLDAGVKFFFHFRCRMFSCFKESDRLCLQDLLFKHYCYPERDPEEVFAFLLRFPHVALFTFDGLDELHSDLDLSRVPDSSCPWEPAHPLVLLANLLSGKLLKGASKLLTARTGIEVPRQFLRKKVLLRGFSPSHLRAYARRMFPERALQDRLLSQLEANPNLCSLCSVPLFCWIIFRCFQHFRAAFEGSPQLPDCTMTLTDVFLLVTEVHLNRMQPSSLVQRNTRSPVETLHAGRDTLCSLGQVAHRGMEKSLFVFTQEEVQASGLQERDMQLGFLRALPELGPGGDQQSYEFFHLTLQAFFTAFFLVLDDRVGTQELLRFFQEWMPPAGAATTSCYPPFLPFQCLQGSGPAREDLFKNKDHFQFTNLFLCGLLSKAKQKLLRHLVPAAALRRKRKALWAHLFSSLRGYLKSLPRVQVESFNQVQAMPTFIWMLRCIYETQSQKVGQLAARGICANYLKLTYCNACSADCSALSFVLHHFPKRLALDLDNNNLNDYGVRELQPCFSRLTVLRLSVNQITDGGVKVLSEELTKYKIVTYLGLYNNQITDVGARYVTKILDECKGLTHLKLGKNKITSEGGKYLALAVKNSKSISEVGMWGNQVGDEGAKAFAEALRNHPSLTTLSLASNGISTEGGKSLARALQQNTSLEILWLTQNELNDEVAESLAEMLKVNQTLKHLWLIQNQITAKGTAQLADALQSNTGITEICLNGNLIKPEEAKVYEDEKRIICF
Sequence of CAAX prenyl protease 2 (Homo sapiens, UniProt Q9Y256) (Q9Y256 whole entry): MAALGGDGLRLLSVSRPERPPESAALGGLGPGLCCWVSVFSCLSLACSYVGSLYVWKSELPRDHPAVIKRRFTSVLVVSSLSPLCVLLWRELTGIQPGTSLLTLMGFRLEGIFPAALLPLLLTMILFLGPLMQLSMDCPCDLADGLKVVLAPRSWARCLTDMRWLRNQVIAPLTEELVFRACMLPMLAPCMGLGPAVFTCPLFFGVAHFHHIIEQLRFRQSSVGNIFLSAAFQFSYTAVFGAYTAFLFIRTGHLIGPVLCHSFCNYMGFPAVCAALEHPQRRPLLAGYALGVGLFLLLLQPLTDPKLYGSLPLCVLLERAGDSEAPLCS
Sequence of Genome polyprotein (P29990 2492-3391 limits assumed): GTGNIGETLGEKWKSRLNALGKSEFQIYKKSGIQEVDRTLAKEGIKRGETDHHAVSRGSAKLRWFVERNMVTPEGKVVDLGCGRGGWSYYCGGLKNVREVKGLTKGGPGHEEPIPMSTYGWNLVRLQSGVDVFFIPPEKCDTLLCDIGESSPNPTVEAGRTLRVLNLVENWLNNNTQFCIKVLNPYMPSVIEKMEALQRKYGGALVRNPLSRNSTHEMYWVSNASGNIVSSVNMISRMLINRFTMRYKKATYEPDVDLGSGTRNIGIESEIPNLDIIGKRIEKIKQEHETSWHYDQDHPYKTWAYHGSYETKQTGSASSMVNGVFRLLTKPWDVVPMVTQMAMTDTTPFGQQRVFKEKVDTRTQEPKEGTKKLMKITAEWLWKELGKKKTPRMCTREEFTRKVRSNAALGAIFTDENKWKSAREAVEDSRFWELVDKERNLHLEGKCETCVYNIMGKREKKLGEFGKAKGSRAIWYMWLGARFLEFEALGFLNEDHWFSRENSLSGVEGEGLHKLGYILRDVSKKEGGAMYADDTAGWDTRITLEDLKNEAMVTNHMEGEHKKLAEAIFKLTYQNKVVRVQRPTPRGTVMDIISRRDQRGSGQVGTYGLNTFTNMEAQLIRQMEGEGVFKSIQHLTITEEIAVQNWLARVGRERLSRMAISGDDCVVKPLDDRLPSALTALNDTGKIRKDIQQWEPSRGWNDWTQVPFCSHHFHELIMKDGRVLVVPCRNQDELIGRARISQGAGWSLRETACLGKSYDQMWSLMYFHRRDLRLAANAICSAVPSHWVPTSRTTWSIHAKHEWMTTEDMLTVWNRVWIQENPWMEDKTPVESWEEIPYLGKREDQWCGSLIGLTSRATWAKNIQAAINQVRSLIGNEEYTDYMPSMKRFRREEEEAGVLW
Sequence of FAD-linked sulfhydryl oxidase ALR (P55789 whole entry): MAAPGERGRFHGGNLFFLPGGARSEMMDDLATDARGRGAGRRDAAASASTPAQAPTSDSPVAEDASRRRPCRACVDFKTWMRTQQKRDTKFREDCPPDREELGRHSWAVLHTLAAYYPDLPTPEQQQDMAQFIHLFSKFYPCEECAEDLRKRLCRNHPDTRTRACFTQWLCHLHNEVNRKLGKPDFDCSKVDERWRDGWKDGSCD
Sequence of Nucleotide-binding oligomerization domain-containing protein 2 (Q9HC29 whole entry, the tested form may be a part): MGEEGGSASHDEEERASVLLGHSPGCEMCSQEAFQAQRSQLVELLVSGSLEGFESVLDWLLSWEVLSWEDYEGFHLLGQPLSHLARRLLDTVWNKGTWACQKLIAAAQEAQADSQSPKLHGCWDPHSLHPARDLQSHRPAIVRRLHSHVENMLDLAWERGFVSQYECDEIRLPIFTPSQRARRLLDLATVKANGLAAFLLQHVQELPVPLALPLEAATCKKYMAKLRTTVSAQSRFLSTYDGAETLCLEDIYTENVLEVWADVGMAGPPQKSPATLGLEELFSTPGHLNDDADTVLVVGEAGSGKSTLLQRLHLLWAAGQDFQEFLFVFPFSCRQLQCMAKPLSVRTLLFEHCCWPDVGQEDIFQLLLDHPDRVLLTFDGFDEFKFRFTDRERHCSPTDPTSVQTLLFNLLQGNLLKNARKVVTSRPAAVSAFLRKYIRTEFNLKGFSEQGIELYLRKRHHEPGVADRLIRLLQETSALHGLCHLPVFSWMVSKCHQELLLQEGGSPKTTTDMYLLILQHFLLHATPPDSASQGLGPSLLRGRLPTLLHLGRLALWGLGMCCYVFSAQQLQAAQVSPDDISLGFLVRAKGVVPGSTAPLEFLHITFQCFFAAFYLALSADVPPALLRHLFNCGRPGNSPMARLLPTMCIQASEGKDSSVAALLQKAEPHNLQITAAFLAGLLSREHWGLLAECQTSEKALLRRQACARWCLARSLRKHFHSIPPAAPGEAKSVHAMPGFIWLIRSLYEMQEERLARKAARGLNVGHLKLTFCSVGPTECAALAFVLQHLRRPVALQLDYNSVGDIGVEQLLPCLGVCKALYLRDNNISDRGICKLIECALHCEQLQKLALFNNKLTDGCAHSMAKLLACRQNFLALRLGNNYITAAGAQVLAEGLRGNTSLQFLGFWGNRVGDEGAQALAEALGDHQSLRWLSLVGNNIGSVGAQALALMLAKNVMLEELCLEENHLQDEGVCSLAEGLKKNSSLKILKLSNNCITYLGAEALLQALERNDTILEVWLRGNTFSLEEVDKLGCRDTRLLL
Sequence of Cytochrome P450 2C9 (P11712 whole entry): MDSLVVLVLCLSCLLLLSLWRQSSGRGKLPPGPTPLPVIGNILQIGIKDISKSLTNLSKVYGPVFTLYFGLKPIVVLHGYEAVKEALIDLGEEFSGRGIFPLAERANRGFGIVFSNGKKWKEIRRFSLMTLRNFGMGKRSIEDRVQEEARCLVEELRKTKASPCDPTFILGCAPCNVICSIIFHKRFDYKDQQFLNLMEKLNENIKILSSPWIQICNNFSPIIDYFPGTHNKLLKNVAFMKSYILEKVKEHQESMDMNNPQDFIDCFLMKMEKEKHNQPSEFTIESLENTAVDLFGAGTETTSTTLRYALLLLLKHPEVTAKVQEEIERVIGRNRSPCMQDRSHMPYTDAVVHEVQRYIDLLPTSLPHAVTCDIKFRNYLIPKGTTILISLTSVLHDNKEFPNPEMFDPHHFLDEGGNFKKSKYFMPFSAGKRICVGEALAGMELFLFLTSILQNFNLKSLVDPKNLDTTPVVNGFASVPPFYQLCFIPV

As a reminder, the AC50 is the concentration giving half of the maximal activity seen. For the compound `Nn1c(SCC(=O)N2CCOCC2)nnc1-c1ccccc1Cl`, the values for the concentration at half-maximal activity (AC50) in series [1] and in series [2] were 0.0794 µM (inconclusive) and “inconclusive”, respectively.

Broadly, the IC50 is the point on the concentration scale where inhibition reaches its midpoint. Broadly, the EC50 is the concentration that produces a half-maximal response. With `COC(=O)c1ccc2nc(Nc3nc4c(F)cc(F)cc4s3)sc2c1`, the IC50 is 1.92 µM (active) in series [3]; 0.23 µM (active) in [4]; > 20 µM (inactive) in series [5]; 0.429 µM (active) in [6]; 9.76 µM (active) in series [8]; > 20 µM (inactive) in series [9]. Further, the concentration for half-maximal inhibition (IC50) in series [11] was 0.666 µM (active); in series [12], > 80 µM (inactive); in [13], 2.8 µM (active). For the same compound, the EC50 in [7] is 3.03 µM (active); in series [10], 0.3 µM (active).

Take `O=C(O)c1ccc(N/N=C/c2cn(Cc3ccccc3F)c3ccccc23)cc1`: the AC50 in series [14] is 5.18 µM (active); in series [19] it was 2.1 µM (active); in [22], 13.8 µM (active); in series [23] it was 4.78 µM (active); in series [24], 5.53 µM (active). In addition, the IC50 in [15] is 2.92 µM (active); in series [16], 2.6 µM (active); in series [17], 3.24 µM (active); in series [18], 64.1 µM (active); in series [20], 22.7 µM (active); in series [21] it was < 0.4 µM (not active).
